# Like-named read-outs stand apart in the source and are kept apart here.
# Columns and labels:
# HDAC6 = molecular target: T1, HDAC6 (Homo sapiens, UniProt Q9UBN7); assay: HDAC Fluorescent Activity Assay; assay type: biochemical; conditions: symbols ++ / +; read-out: HDAC6 Inhibition Activity (IC50 class)
# T1 sequence (Q9UBN7 1-1215): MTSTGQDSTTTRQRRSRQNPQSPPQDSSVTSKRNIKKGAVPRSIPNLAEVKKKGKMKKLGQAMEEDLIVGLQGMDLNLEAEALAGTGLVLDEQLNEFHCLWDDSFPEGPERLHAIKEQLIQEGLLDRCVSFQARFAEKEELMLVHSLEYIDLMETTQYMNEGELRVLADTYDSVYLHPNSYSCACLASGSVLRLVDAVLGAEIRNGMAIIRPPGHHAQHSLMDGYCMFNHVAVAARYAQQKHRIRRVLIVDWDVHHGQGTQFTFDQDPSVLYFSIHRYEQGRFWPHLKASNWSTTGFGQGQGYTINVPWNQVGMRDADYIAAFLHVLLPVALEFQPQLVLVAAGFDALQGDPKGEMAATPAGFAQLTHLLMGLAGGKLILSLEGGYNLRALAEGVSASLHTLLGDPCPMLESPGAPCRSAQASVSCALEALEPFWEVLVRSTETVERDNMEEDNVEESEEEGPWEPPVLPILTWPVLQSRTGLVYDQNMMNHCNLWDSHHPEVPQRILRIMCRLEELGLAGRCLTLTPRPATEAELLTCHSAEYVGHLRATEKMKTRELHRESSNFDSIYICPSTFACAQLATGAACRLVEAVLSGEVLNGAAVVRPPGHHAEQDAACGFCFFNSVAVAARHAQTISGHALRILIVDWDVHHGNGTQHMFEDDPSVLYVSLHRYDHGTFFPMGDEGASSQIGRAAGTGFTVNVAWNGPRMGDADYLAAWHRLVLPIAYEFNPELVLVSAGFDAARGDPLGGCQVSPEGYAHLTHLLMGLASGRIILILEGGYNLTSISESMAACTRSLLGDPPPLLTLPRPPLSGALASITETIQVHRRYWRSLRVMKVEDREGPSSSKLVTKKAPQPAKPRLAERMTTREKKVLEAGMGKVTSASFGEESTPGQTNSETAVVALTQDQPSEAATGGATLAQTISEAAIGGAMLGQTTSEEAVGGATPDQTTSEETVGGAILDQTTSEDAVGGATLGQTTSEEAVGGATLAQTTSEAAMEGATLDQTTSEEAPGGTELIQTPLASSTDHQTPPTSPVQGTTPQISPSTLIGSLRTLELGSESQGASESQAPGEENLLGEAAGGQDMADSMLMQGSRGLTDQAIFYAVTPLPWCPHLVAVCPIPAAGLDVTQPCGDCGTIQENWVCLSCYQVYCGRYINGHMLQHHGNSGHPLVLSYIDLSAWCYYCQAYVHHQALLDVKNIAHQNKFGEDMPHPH
# Procedure: This protocol is to determine the IC50s or percentage of inhibition values of the test compound against HDACs.
# The HDAC Fluorescent Activity Assay is based on the unique Fluorogenic Substrate and Developer combination. […] First, the Fluorogenic Substrate, which comprises an acetylated lysine side chain, is incubated with a purified HDAC enzyme. Deacetylation of the substrate sensitizes the substrate so that, in the second step, treatment with the Developer produces a fluorophore.
# Testing compounds were dissolved in 100% DMSO to specific concentration. […]
# 1. Deliver 2× enzyme in wells of reaction plate except No Enzyme control wells. Add buffer in No En wells.
# 2. Deliver compounds in 100% DMSO into the enzyme mixture by Acoustic technology (Echo550; nanoliter range). Spin down and pre-incubation.
# 3. Deliver 2× Substrate Mixture (Fluorogenic HDAC Substrate and co-factor if applicable) in all reaction wells to initiate the reaction. Spin and shake.
# 4. Incubate for 1-2 hr at 30° C. with seal.
# 5. Add Developer with Trichostatin A (or TMP269) to stop the reaction and to generate fluorescent color.
# 6. Fluorescence was read (excitatory, 360; emission, 460) using the EnVision Multilabel
# 7. Take endpoint reading for analysis after the development reaches plateau.
# The percentages of enzyme activity (relative to DMSO controls) and IC50 values were calculated using the GraphPad Prism 4 program based on a sigmoidal dose-response equation.
# [1] = tested on: Leukemia Cell Line CCRF-CEM; assay: cells; assay type: cell-based; conditions: Homo sapiens, read-out: inhibition of proliferation
# [2] = tested on: Leukemia Cell Line HL-60(TB); assay type: cell-based; conditions: Homo sapiens
# Leukemia Cell Line K-562 = assay type: cell-based; conditions: Homo sapiens
# [3] = tested on: Leukemia Cell Line MOLT-4; assay type: cell-based; conditions: Homo sapiens
# [4] = tested on: Leukemia Cell Line RPMI-8226; assay type: cell-based; conditions: Homo sapiens
# Leukemia Cell Line SR = assay: cells; assay type: cell-based; conditions: Homo sapiens, read-out: inhibition of proliferation
# [5] = tested on: Melanoma Cell Line UACC-62; assay: cells; assay type: cell-based; conditions: Homo sapiens
# Ovarian Cell Line IGROV1 = assay type: cell-based; conditions: Homo sapiens
# [6] = tested on: Ovarian Cell Line OVCAR-8; assay: cells; assay type: cell-based; conditions: Homo sapiens; OVCAR-8; single dose, 10 uM compound concentration; read-out: inhibition of proliferation
# [7] = tested on: Ovarian Cell Line NCI/ADR-RES; assay: cells; assay type: cell-based; conditions: Homo sapiens, read-out: inhibition of proliferation
# [8] = tested on: Breast Cancer Cell Line HS 578T; assay type: cell-based; conditions: Homo sapiens, read-out: inhibition of proliferation
# [9] = tested on: Breast Cancer Cell Line BT-549; assay: cells; assay type: cell-based; conditions: Homo sapiens
# [10] = tested on: Ovarian Cell Line OVCAR-3; assay: cells; conditions: Homo sapiens, OVCAR-3, read-out: inhibition of proliferation
# [11] = tested on: Breast Cancer Cell Line MDA-MB-468; assay: cells; conditions: Homo sapiens, MDA-MB-468, read-out: inhibition of proliferation
# [12] = single dose, 10 uM compound concentration
structure (smiles),measurement,setting,value
"Cc1nc2cccc(NCc3ccc(C(=O)NO)cc3)c2c(=O)n1-c1ccccc1 [Compound LX, N-hydroxy-4-(((2-methyl-4-oxo-3-phenyl-3,4-dihydroquinazolin-5-yl)amino)methyl)benzamide]",IC50,HDAC6,< 100 nM
same,inhibition at 10 µM,[1]; [12],> 50%
same,inhibition at 10 µM,"[2]; HL-60(TB), single dose, 10 uM compound concentration, read-out: inhibition of proliferation",> 50%
same,inhibition at 10 µM,"Leukemia Cell Line K-562; K562, K-562, single dose, 10 uM compound concentration, read-out: inhibition of proliferation",> 50%
same,inhibition at 10 µM,"[3]; MOLT-4, single dose, 10 uM compound concentration, read-out: inhibition of proliferation",> 50%
same,inhibition at 10 µM,"[4]; RPMI-8226, single dose, 10 uM compound concentration, read-out: inhibition of proliferation",> 50%
same,inhibition at 10 µM,"Leukemia Cell Line SR; SR, single dose, 10 uM compound concentration",> 50%
same,inhibition at 10 µM,"[5]; UACC-62, single dose, 10 uM compound concentration, read-out: inhibition of proliferation",> 50%
same,inhibition at 10 µM,"Ovarian Cell Line IGROV1; IGROV-1, IGROV1, single dose, 10 uM compound concentration, read-out: inhibition of proliferation",> 50%
same,inhibition at 10 µM,[6],> 50%
same,inhibition at 10 µM,[7]; [12],> 50%
same,inhibition at 10 µM,"[8]; HS 578T, single dose, 10 uM compound concentration",25 to 50%
same,inhibition at 10 µM,"[9]; BT-549, single dose, 10 uM compound concentration, read-out: inhibition of proliferation",25 to 50%
same,inhibition at 10 µM,[10],> 50%
same,inhibition at 10 µM,[11],> 50%
"CC[C@H](Nc1ncnc2[nH]cnc12)c1nc2cccc(NCc3ccc(C(=O)NO)nc3)c2c(=O)n1-c1ccccc1 [V, (S)-5-(((2-(1-((9H-purin-6-yl)amino)propyl)-4-oxo-3-phenyl-3,4-dihydroquinazolin-5-yl)amino)methyl)-N-hydroxypicolinamide]",inhibition at 10 µM,[1],> 50%
same,inhibition at 10 µM,"[2]; HL-60, read-out: inhibition of proliferation",> 50%
same,inhibition at 10 µM,"Leukemia Cell Line K-562; K562, read-out: inhibition of proliferation",> 50%
same,inhibition at 10 µM,"[3]; MOLT-4, read-out: inhibition of proliferation",> 50%
same,inhibition at 10 µM,"[4]; RPMI-8226, read-out: inhibition of proliferation",> 50%
same,inhibition at 10 µM,Leukemia Cell Line SR,> 50%
same,inhibition at 10 µM,"[5]; UACC-62, read-out: inhibition of proliferation",> 50%
same,inhibition at 10 µM,"Ovarian Cell Line IGROV1; IGROV-1, read-out: inhibition of proliferation",25 to 50%
same,inhibition at 10 µM,[7],25 to 50%
same,inhibition at 10 µM,[8]; Hs-578T,> 50%
same,inhibition at 10 µM,"[9]; BT-549, read-out: inhibition of proliferation",> 50%
